In publication PMC4801207, “Characterisation of Signalling by the Endogenous GPER1 (GPR30) Receptor in an Embryonic Mouse Hippocampal Cell Line (mHippoE-18)” (PLoS ONE, 2016):

The compounds below were run against T1, GPER1 (GPR30) (Mus musculus, UniProt Q8BMP4) (assay: cAMP accumulation, radiometric PKA binding assay, mHippoE-18 cells). Conditions: agonist; potentiation of 10 μM forskolin-stimulated cAMP, 100 μM IBMX, 20 min; endogenous receptor, no antagonist.
T1 construct: full-length endogenous receptor, native in mHippoE-18 immortalized embryonic mouse hippocampal cell line (CELLutions Biosystems); cells also express moderate ERalpha and ERbeta
T1 sequence (Q8BMP4 1-375): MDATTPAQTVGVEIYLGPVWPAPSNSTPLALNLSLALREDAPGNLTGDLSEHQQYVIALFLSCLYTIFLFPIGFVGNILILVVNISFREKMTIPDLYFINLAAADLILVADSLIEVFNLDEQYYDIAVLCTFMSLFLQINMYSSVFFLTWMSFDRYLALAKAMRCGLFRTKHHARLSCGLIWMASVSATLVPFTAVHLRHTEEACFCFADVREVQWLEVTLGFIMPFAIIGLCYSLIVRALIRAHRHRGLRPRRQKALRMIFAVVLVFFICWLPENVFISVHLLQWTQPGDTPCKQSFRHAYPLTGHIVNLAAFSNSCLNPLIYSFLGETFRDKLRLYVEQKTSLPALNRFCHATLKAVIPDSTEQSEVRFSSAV
Assay type: cell-based

EC50 | Compound
3.6 nM | C[C@]12CC[C@@H]3c4ccc(O)cc4C[C@@H](CCCCCCCCC[S+]([O-])CCCC(F)(F)C(F)(F)F)[C@H]3[C@@H]1CC[C@@H]2O (stereo partly drawn) [ICI 182,780, 7α, 17β-[9-[(4,4,5,5,5-Pentafluoropentyl)sulfinyl]nonyl]estra-1,3,5(10)-triene-3,17-diol]
1.1 nM | C[C@]12CC[C@@H]3c4ccc(O)cc4CC[C@H]3[C@@H]1CC[C@@H]2O [17β-Estradiol]
0.52 nM | CC(=O)c1ccc2c(c1)[C@H]1C=CC[C@H]1[C@@H](c1cc3c(cc1Br)OCO3)N2 (racemic) [G1]
